Values joined by “and” are separate entries in the source; they are usually repeats but may differ in a detail not shown here. Identical values can stand only once.
Experiments:
[1] = tested on: human peripheral blood mononuclear cells; assay: Detection of IFN-γ secretion in human peripheral blood mononuclear cells (anti-CD3/CD28 beads, ELISA); type: cell-based; details: for Maximum induction factor: IFN-γ secretion, human PBMC; for EC3x: concentration for IFN-γ secretion of human PBMC to reach 3 times the baseline, 3 days
Procedure: Pharmacological Experiment 4: Detection of IFN-γ Secretion in Human Peripheral Blood Monocytes
• (1) Take human peripheral blood mononuclear cells frozen in liquid nitrogen, thaw in a 37° C. water bath, add 5 mL of preheated RPMI-1640 complete medium (containing 10% fetal bovine serum and penicillin/streptomycin), centrifuge at 500 g for 10 minutes, and discard the supernatant; • (2) Resuspend the cells in RPMI-1640 complete medium, adjust the density to 5×10^6 cells/mL, inoculate in a low-adhesion 6-well plate (Corning, 3471), and culture at 37° C. for 2 days; • (3) Collect cultured human peripheral blood mononuclear cells, centrifuge at 500 g for 10 min, and discard the supernatant; • (4) Resuspend the cells in RPMI-1640 complete medium, adjust the density to 1×10^6 cells/mL, and inoculate them in a round-bottom 96-well plate (Jet Biofil, TCP-002-096), with 100 μL per well; • (5) Add 50 μL of the test compound to each well and incubate at 37° C. for 30 min; • (6) Take human anti-CD3/CD28 magnetic beads (Miltenyi, 130-091-441), wash once with RPMI-1640 complete medium, and adjust the density to 0.5×106 beads/mL for later use; • (7) After the compound incubation, 50 μL of anti-human CD3/CD28 magnetic beads were added to each well and cultured at 37° C. for 3 days, • (8) The cell culture supernatant was obtained and the IFN-γ secretion was detected using the Human IFN-gamma DuoSet ELISA kit (R&D, DY285B-05); • (9) The log value of concentration was used as the X-axis and the IFN-γ secretion amount was used as the Y-axis. The “log (agonist) vs. response−variable slope” equation of the analysis software GraphPad Prism 7 was used to fit the dose-effect curve, thereby obtaining the EC3x value and the maximum induction factor of the compound for the secretion of IFN-γ from human peripheral blood mononuclear cells to reach 3 times the baseline.

[2] = target: GLK (Homo sapiens (Human), UniProt Q8IVH8); assay: GLK kinase assay (1 mM ATP system), ADP-Glo; type: biochemical
Procedure: Solution […] The test compound was serially diluted using DMSO to 200 times the detection concentration. […] Centrifuge at 1000×g for 30 seconds and incubate at 25° C. for 15 minutes. • (5) Add ATP and substrate: Add 2 μL of 2×ATP-MBP solution to the 384-well plate and centrifuge at 1000×g for 30 seconds. Seal the plate with a sealing film and incubate at 25° C. for 60 minutes. • (6) Add ADP-Glo reagent: Add 4 μL ADP-Glo reagent (Promega, V9103) to the 384-well plate, centrifuge at 1000×g for 30 seconds, and incubate at 25° C. for 60 minutes. • (7) Detection of luminescent signal: Add 8 μL of luminescent detection reagent (Promega, V9103) to a 384-well plate, centrifuge at 1000×g for 30 seconds, and incubate at 25° C. for 60 minutes. The chemiluminescent signal was read using a BMG microplate reader. • (8) Calculation of percentage inhibition rate: […] See Table 2 for the GLK kinase IC50 data of the example compounds on […].

[3] = target: HPK1 (Homo sapiens (Human), UniProt Q92918); assay: HPK1 enzyme activity detection (1 mM ATP system), ADP-Glo with MBP substrate, Pharmacological Experiment 2; type: biochemical
Procedure: Pharmacological Experiment 2: […] The test compound was serially diluted using DMSO to 200 times the detection concentration. […] Centrifuge at 1000×g for 30 seconds and incubate at 25° C. for 15 minutes. • (5) Adding ATP and substrate: Add 2 μL of 2×ATP-MBP solution to the 384-well plate and centrifuge at 1000×g for 30 seconds. Seal the plate with a sealing film and incubate at 25° C. for 60 minutes. • (6) Add ADP-Glo reagent: Add 4 μL ADP-Glo reagent (Promega, V9103) to the 384-well plate, centrifuge at 1000×g for 30 seconds, and incubate at 25° C. for 60 minutes. • (7) Detection of luminescent signal; Add 8 μL of luminescent detection reagent (Promega, V9103) to a 384-well plate, centrifuge at 1000×g for 30 seconds, and incubate at 25° C. for 60 minutes. The chemiluminescent signal was read using a BMG instrument. • (8) Calculation of percentage inhibition rate: […] See Table 2 for the enzymatic IC 50 data of the example compounds on HPK1.

HPK1, sequence (Q92918 whole entry, species assumed): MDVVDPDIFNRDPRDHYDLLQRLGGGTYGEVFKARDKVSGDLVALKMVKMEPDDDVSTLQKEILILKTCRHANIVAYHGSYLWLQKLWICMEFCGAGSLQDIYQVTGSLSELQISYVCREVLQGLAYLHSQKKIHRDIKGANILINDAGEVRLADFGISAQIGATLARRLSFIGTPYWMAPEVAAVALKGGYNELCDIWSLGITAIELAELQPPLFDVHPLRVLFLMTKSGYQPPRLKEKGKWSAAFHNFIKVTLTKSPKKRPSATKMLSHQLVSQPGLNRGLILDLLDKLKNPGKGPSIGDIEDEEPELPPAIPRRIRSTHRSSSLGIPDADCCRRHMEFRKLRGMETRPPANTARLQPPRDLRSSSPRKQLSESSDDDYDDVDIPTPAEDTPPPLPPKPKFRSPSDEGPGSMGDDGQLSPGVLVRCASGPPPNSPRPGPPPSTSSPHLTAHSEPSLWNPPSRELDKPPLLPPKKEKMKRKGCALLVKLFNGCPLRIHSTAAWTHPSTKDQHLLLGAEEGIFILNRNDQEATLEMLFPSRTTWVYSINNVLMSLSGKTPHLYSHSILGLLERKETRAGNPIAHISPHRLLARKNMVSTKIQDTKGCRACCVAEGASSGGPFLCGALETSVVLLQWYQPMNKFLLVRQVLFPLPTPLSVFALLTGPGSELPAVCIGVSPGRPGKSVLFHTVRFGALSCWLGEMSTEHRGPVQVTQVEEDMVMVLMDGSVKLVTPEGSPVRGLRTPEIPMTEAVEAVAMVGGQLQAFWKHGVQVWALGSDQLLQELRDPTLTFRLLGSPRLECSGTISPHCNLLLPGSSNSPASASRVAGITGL
GLK, sequence (Q8IVH8 whole entry, species assumed): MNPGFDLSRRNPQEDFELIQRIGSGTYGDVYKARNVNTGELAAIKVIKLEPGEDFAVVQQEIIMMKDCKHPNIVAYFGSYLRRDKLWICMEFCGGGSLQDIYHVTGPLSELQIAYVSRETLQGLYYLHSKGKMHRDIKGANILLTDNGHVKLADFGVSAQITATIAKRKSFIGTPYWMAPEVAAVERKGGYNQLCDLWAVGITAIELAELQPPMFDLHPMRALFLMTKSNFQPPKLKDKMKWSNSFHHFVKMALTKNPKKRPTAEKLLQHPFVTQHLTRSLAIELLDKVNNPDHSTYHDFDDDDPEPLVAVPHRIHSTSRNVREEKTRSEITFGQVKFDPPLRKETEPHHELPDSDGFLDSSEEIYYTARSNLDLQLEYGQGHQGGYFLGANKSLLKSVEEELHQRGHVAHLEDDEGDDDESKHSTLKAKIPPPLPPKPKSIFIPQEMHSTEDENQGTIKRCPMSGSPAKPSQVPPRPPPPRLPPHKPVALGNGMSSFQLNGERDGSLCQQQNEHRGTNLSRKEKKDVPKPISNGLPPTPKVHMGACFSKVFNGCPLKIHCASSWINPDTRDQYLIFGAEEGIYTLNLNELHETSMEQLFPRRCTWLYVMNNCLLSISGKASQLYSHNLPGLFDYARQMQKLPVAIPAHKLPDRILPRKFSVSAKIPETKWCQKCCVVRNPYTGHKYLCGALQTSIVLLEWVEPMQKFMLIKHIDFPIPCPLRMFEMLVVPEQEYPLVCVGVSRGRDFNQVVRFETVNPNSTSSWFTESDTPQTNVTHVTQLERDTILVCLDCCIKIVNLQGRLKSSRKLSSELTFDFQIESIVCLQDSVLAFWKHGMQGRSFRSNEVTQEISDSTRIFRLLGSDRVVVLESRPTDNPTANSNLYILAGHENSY

Molecule	Maximum induction factor [1]	EC3x [1]	IC50 [2]	IC50 [3]
CN(C)C1COC2(CCOCC2)c2ccc(Nc3ccc(-c4cnc5cc(F)ccn45)c4c3C(=O)NC4)nc21 (stereo not shown) [Compound 49, 7-((8′-(DIMETHYLAMINO)-2,3,5,6,7′,8′-HEXAHYDROSPIRO[PYRAN-4,5′-PYRAN[4,3-B]PYRIDINE]-2′-YL)AMINO)-4-(7-FLUOROIMIDAZOLE[1,2-A]PYRIDIN-3-YL)ISOINDOL-1-ONE]	10.7 and 5.7	152 nM and 294 nM	338 nM	4.44 nM
4-(7-FLUOROIMIDAZO[1,2-A]PYRIDIN-3-YL)-7-((7′-METHYL-2,3,5,6,7′,8′-HEXAHYDRO-6′-SPIRO[PYRAN-4,5′-[1,7]NAPHTHYRIDINE]-2′-YL)AMINO)ISOINDOL-1-ONE [Compound 50]	4.8	181 nM	1230 nM	3.39 nM
O=C1NCc2c(-c3cnc4cc(F)ccn34)ccc(Nc3ccc4c(n3)C(NC3CC3)CC43CCOCC3)c21 (stereo not shown) [Compound 62, 7-((7-(CYCLOPROPYLAMINO)-2′,3′,5′,6,6′,7-HEXAHYDROSPIRO[CYCLOPENTYL[B]PYRIDINE-5,4′-PYRAN]-2-YL)AMINO)-4-(7-FLUOROIMIDAZOLE[1,2-A]PYRIDIN-3-YL)ISOINDOL-1-ONE]	4.9	241 nM	> 30000 nM	10.2 nM
O=C1NCc2c(-c3cnc4cc(F)ccn34)ccc(Nc3ccc4c(n3)C(N3CC[C@@H](F)C3)CC43CCOCC3)c21 (stereo partly drawn) [Compound 71, 4-(7-FLUOROIMIDAZOLO[1,2-A]PYRIDIN-3-YL)-7-((7-((R)-3-FLUOROPYRROLIDIN-1-YL)-2′,3′,5′,6,6′,7-HEXA HYDROSPIRO[CYCLOPENTYL[B]PYRIDIN-5,4′-PYRAN]-2-YL)AMINO)ISOINDOL-1-ONE]	16.6	76 nM	293 nM	3.27 nM
O=C1NCc2c(-c3cnc4cc(F)ccn34)ccc(Nc3ccc4c(n3)C(NCC(F)F)CC43CCOCC3)c21 (stereo not shown) [Compound 105]	14.1	58 nM		5.26 nM
O=C1NCc2c(-c3cnc4cc(F)ccn34)ccc(Nc3ccc4c(n3)C(N3C5CCC3COC5)CC43CCOCC3)c21 (stereo not shown) [Compound 115]	9.6	225 nM		7.15 nM
Cc1cc(Nc2ccc(-c3cnn4cc(F)ccc34)c3c2C(=O)NC3)nc2c1C1(CCOCC1)C[C@H]2N(C)C [Compound 29]			9.77 nM	1.98 nM
O=C1NCc2c(-c3cnc4cc(F)ccn34)ccc(Nc3ccc4c(n3)C(N3CC[C@H](F)C3)CC43CCOCC3)c21 (stereo partly shown) [Compound 74]			299 nM	3.02 nM
O=C1NCc2c(-c3cnc4cc(F)ccn34)ccc(Nc3ccc4c(n3)C(NCC3CC3)CC43CCOCC3)c21 (stereo not shown) [Compound 117]			562 nM	5.04 nM
CN(C)C1CC2(CCOCC2)c2ccc(Nc3ccc(-c4cnc5n4CCOC5)c4c3C(=O)NC4)nc21 (stereo not shown) [Compound 165, 4-(5,6-DIHYDRO-8H-IMIDAZO[2,1-C][1,4]OXAZIN-3-YL)-7-((7-(DIMETHYLAMINO)-2′,3′,5′,6,6′,7-HEXAHYDROSPIRO[CYCLOPENTA[B]PYRIDINE-5,4′-PYRAN]-2-YL)AMINO)ISOINDOL-1-ONE]			1190 nM	24.9 nM
CN(C)C1CC2(CCOCC2)c2ccc(Nc3ccc(-c4cnc5ncccn45)c4c3C(=O)NC4)nc21 (stereo not shown) [Compound 44]			378 nM	3.05 nM
CN(C)C1CC2(CCOCC2)c2ccc(Nc3ccc(-c4cnn5cc(F)ccc45)c4c3C(=O)NC4)nc21 (stereo not shown) [Compound 36]			78 nM	2.73 nM
CO[C@@H]1CCN(C2CC3(CCOCC3)c3ccc(Nc4ccc(-c5cnc6cc(F)ccn56)c5c4C(=O)NC5)nc32)C1 (stereo partly shown) [Compound 73]			206 nM	3.48 nM
CN(C1CC1)C1CC2(CCOCC2)c2ccc(Nc3ccc(-c4cnc5cc(F)ccn45)c4c3C(=O)NC4)nc21 (stereo not shown) [Compound 61, 7-((7-(CYCLOPROPYL(METHYL)AMINO)-2′,3′,5′,6,6′,7-HEXAHYDROSPIRO[CYCLOPENTYL[B]PYRIDINE-5,4′-PYRAN]-2-YL)AMINO)-4-(7-FLUOROIMIDAZOLE[1,2-A]PYRIDIN-3-YL)ISOINDOL-1-ONE]			> 30000 nM	7.7 nM
O=C1NCc2c(-c3cnc4cc(F)ccn34)ccc(Nc3ccc4c(n3)C(NC3CCCC3)CC43CCOCC3)c21 (stereo not shown) [Compound 109]			791 nM	5.97 nM
Cc1cc(Nc2ccc(-c3cnc4ccccn34)c3c2C(=O)NC3)nc2c1C1(CCOCC1)C[C@H]2N(C)C [Compound 47]			30.3 nM	1.51 nM
CN(C)C1CC2(CCOCC2)c2ccc(Nc3ccc(-c4cnc5cc(N)ccn45)c4c3C(=O)NC4)nc21 (stereo not shown) [Compound 174, 4-(7-AMINOIMIDAZO[1,2-A]PYRIDIN-3-YL)-7-((7-(DIMETHYLAMINO)-2′,3′,5′,6,6′,7-HEXAHYDROSPIRO[CY CLOPENTADIENYL[B]PYRIDINE-54′-PYRAN]-2-YL)AMINO)ISOINDOL-1-ONE]			566 nM	19.2 nM
CN(C)C1CC2(CCOC2)c2ccc(Nc3ccc(-c4cnc5cc(OC(F)F)ccn45)c4c3C(=O)NC4)nc21 (stereo not shown) [Compound 172, 4-(7-(DIFLUOROMETHOXY)IMIDAZO[1,2-A]PYRIDIN-3-YL)-7-((7-(METHYLAMINO)-4′,5′,6,7-TETRAHYDRO-2′-H-PYRIDO[CYCLOPENTYL[B]PYRIDINE-5,3′-FURAN]-2-YL)AMINO)ISOINDOLIN-1-ONE]			1120 nM	13.8 nM
O=C1NCc2c(-c3cnc4cc(F)ccn34)ccc(Nc3ccc4c(n3)C(N3CCC3)CC43CCOCC3)c21 (stereo not shown) [Compound 39, 7-(7-(AZETIDIN-1-YL)-2′,3′,5′,6,6′,7-HEXAHYDROSPIRO[B]PYRIDINE-5,4′-PYRAN]-2-YL)AMINO)-4-(7-FLUOROIMIDAZO[1,2-A]PYRIDIN-3-YL)ISOINDOL-1-ONE]			88.2 nM	3.7 nM and 2.78 nM
O=C1NCc2c(-c3cnc4n3CCCC4)ccc(Nc3ccc4c(n3)CCCC43CCOCC3)c21 [Compound 167]			1370 nM	25.3 nM
CC(C)N(C)C1CC2(CCOCC2)c2ccc(Nc3ccc(-c4cnc5cc(F)ccn45)c4c3C(=O)NC4)nc21 (stereo not shown) [Compound 85, 4-(7-FLUOROIMIDAZO[1,2-A]PYRIDIN-3-YL)-7-((7-(ISOPROPYL(METHYL)AMINO)-2′,3′,5′,6,6′,7-HEXAHYDRO SPIRO[CYCLOPENTYL[B]PYRIDIN-5,4′-PYRAN]-2-YL)AMINO)ISOINDOL-1-ONE]			831 nM	5.19 nM
CN(C)C1CC2(CCOCC2)c2ccc(Nc3ccc(-c4cnc5cc(C#N)ccn45)c4c3C(=O)NC4)nc21 (stereo not shown) [Compound 157, 3-(7-((7-(DIMETHYLAMINO)-2′,3′,5′,6,6′,7-HEXAHYDROSPIRO]CYCLOPENTANE[B]PYRIDINE-5,4′-PYRAN]-2-YL)AMINO)-1-OXOISOINDOL-4-YL)IMIDAZO[1,2-A]PYRIDINE-7-CARBONITRILE]			877 nM	5.9 nM
Cc1cc(Nc2ccc(-c3cnn4ccccc34)c3c2C(=O)NC3)nc2c1C1(CCOCC1)C[C@H]2N(C)C [Compound 48]			8.81 nM	2.06 nM
CN(C)C1CC2(CCOCC2)c2ccc(Nc3ccc(-c4cnc5c(F)c(F)ccn45)c4c3C(=O)NC4)nc21 (stereo not shown) [Compound 43, 4-(7,8-DIFLUOROIMIDAZO[1,2-A]PYRIDIN-3-YL)-7-((7-(DIMETHYLAMINO)-2′,3′,5′,6,6′,7-HEXAHYDROSPIRO [B]PYRIDIN-5,4′-PYRAN]-2-YL)AMINO)ISOINDOL-1-ONE]			657 nM	4.22 nM
